Measurements published in US6673788B2, “Electrophilic ketones for the treatment of herpesvirus infections” (G. D. Searle & Co., priority 1996, dated 2004).
Like-named read-outs stand apart in the source and are kept apart here.

How the values were obtained:
[1] = molecular target: HCMV protease (Assemblin) (Human cytomegalovirus, UniProt P16753); experiment: Enzymatic assay for HCMV protease (assemblin) inhibitors; format: biochemical; conditions: pNA substrate, 30 min preincubation
Description: Assemblin protease activity was determined using a chromogenic para-nitroanilide (pNA) substrate based on the hCMV maturation cleavage site, succinyl-AGVVNA-para-nitroanilide. […] Potential protease inhibitors were dissolved in DMSO and 10 μL were added to the wells of a 96-well plate (Dynatech, Immulon 1). Enzyme was diluted to 4.8 μg/mL in assay buffer (10 mM sodium phosphate, pH 7.4, 150 mM sodium acetate, 0.1% CHAPS, 20% glycerol) and 100 μL were added to each well. Following a 30 minute incubation at room temperature, 50 μL substrate (1 part 20 mM succinyl-AGVVNA-paranitroanilide (SEQID:1) in DMSO plus 9 parts assay buffer) were added, and periodic readings taken in a microplate reader at 405 nm relative to 650 nm. Activities were expressed as milliabsorbance unit (mAU) change per minute. Inhibitor potency was determined by comparison with incubations lacking inhibitor, which under these conditions gave an increase of 0.5-1 mAU/min. No increase was seen when enzyme was omitted. Results [IC50 (μM)] are included in Table 1.
The construction also encoded six additional histidine residues at the amino terminus of the protease. These additional histidine residues provided an affinity ligand by which it was purified using nickel-nitriloacetic acid-agarose (Qiagen).
The purified protease was stored as a 1-3 mg/ml stock solution in 20 mM HEPES buffer, pH 7.4; containing 20% (v/v) glycerol. This stock was diluted with assay buffer to 4.8 μg/ml. A 100 μL aliquot of this solution was used in the enzyme reaction.
A specific substrate was synthesized based on the cleavage specificity of HCMV protease at the “maturation site” of the assembly protein (F. Liu and B. Roizman, J. Virol., 65, 5149 (1991), and A. Welch, et al, J. Virol., 65, 4091 (1991)). The assembly protein maturation site has the sequence . . . AGVVNA*SCRLATA . . .; the substrate used was succinyl-AGVVNA-PNA (SEQID:1) which was prepared by standard peptide synthetic methods such as that described in Bodansky and Bodansky, “The Practice of Peptide Synthesis” (1984), and was stored as a stock solution at 20 mM in dimethyl sulfoxide. This was diluted 10-fold with assay buffer to give a concentration of 2 mM just before use. An aliquot of 50 μL was used in the reaction
An assay Buffer (10 mM sodium phosphate buffer, pH 7.4; 150 mM sodium acetate; 0.1% CHAPS; and 20% (v/v) glycerol) was used to dilute stock solutions of enzyme and substrate.

[2] = molecular target: T1, Bovine pancreas α-chymotrypsin (Bos taurus, UniProt P00766, DEL14-15/DEL147-148); experiment: Chymotrypsin assay; format: biochemical
T1 construct: purchased Sigma type II; host or cells: bovine pancreas
Description: The chymotrypsin assay was modified from the method of Delmar et al [Anal. Biochem., 99, 316-320 (1979)]. Bovine pancreas α-chymotrypsin (type II, Sigma) was dissolved in 0.001 N HCl at 1 mg/ml and further diluted 1/600 in assay buffer (0.1 M Tris, pH 7.8, containing 0.1 M CaCl2) before use. 20 μl of test compound in DMSO (or DMSO alone), 100 μl of assay buffer and 30 μl of enzyme were added to 96 well plates, mixed and pre-incubated for 30 minutes at ambient temperature. Reaction was initiated by addition of 50 μl of 0.2 mM N-succinyl-Ala-Ala-Pro-Phe-p-nitroanilide (Sigma; 2 mM in DMSO diluted 1/10 in assay buffer before use). The increase in absorbance at 405 nm was monitored for 10 minutes with a Biotek EL340 plate reader.

[3] = tested on: human foreskin fibroblasts; format: cell-based
Description: (§1) These complimentary assays tested the ability of a compound to inhibit the production of new virus and the toxicity of the compound to the host cells. It was important that both assays be performed simultaneously in order to compare the results directly since, toxicity may indirectly reduce viral yield.
Viral yield was estimated by measuring the amount of a viral antigen produced 4 days post infection with a monoclonal antibody to an abundant “immediate early” viral protein. An enzyme-linked (horseradish peroxidase) secondary antibody specific to the primary (mouse) antibody was used to measure the amount of viral antigen. Test compounds were diluted to 2-times the desired final concentration in DMEM+5% FBS. One hundred microliters of this solution was placed in each well of a 96-well plate. This was performed once for the antiviral 96-well plate and again for a cytotoxicity plate. Two controls were also included for both plates; a no drug control and a no virus control. Ganciclovir was routinely tested in antiviral and cytotoxicity plates as a reference standard because it has known antiviral activity for HCMV. All cells were prepared by harvesting human foreskin fibroblasts, with trypsin and re-suspending at a concentration of 5×10^5 cells per ml in DMEM. Infected cells were prepared by infecting these with HCMV (strain AD169) at a multiplicity of infection=0.2. One hundred microliters of uninfected cells (5×10^4 cells) were added to the appropriate wells of the cytotoxicity plate. In a similar manner 100 μl of infected cells (5×10^4 cells) were added to the appropriate wells of the antiviral plate. […]
In this assay, HCMV replication was monitored by the production of E. coli beta-galactosidase by the engineered virus RC256 [Spaete and Mocarski, Proc. Nat. […] The reaction was stopped with 100 μl 1M CAPS buffer, pH=11.0, per well and the optical density was read at 410 nanometers. Ganciclovir was used as a positive control and the EC50 was determined as described above for the HCMV ELISA. […]

[4] = tested on: human foreskin fibroblasts; format: cell-based; conditions: 96 h
Description: as §1
Viral yield was estimated by measuring the amount of a viral antigen produced 4 days post infection with a monoclonal antibody to an abundant “immediate early” viral protein. An enzyme-linked (horseradish peroxidase) secondary antibody specific to the primary (mouse) antibody was used to measure the amount of viral antigen. Test compounds were diluted to 2-times the desired final concentration in DMEM+5% FBS. One hundred microliters of this solution was placed in each well of a 96-well plate. This was performed once for the antiviral 96-well plate and again for a cytotoxicity plate. Two controls were also included for both plates; a no drug control and a no virus control. Ganciclovir was routinely tested in antiviral and cytotoxicity plates as a reference standard because it has known antiviral activity for HCMV. All cells were prepared by harvesting human foreskin fibroblasts, with trypsin and re-suspending at a concentration of 5×10^5 cells per ml in DMEM. Infected cells were prepared by infecting these with HCMV (strain AD169) at a multiplicity of infection=0.2. […]

Sequence of HCMV protease (Assemblin) (P16753 1-256): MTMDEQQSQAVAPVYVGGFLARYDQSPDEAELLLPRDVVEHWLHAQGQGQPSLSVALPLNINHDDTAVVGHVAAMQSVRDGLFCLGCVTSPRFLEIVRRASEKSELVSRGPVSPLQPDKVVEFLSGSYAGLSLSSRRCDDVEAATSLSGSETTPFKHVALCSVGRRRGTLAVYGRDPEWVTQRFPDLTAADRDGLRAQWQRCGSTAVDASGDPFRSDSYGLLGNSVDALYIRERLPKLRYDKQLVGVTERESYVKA

Question: Which IC50 [1] does the source give for O=C(Nc1ccccc1C(=O)C(F)(F)F)c1ccco1 [Example 1, N-[2-(2,2,2-Trifluoro-1-oxoethyl)phenyl]furan-2-carboxamide] here?
Answer: 7.7 µM

Question: And the “Chymotrypsin % @ Conc. (μM)” value ([2]; @ 300 μM)?
Answer: 0% @ 300

Question: With O=C(CCc1ccccc1)Nc1cc(F)ccc1C(=O)C(F)(F)F [Example 2, N-[5-Fluoro-2-(2,2,2-trifluoro-1-oxoethyl)phenyl]benzenepropanamide] as the compound, how does the IC50 [1] read?
Answer: 5.3 µM

Question: Which IC50 [1] does the source give for O=C(CCc1ccccc1)Nc1ccccc1C(=O)C(F)(F)F [Example 4, N-[2-(2,2,2-Trifluoro-1-oxoethyl)phenyl]benzenepropanamide] here?
Answer: 49 µM

Question: Which results are given for O=C(Nc1ccccc1C(=O)C(F)(F)F)c1cnccn1 [Example 5, N-[2-(2,2,2-Trifluoro-1-oxoethyl)phenyl]pyrazine-2-carboxamide]?
Answer: IC50 [1]: 3.7 µM; Antiviral Activity TD50 ([3]; 3 days): > 100 µM; Chymotrypsin % @ Conc. (μM) ([2]; @ 300 μM): 0% @ 300

Question: Which IC50 [1] does the source give for O=C(Nc1ccccc1C(=O)C(F)(F)F)OCc1ccccc1 [Example 6, Phenylmethyl N-[2-(2,2,2-trifluoro-1-oxoethyl)phenyl]carbamate] here?
Answer: 17 µM

Question: For O=C(CCc1ccccc1)Nc1cc([N+](=O)[O-])ccc1C(=O)C(F)(F)F [Example 7, N-[5-Nitro-2-[2,2,2-trifluoro-1-oxoethyl)phenyl]benzenepropanamide], which “Antiviral Activity TD50” value [4] is on record?
Answer: > 100 µM

Question: Which IC50 [1] does the source give for O=C(Nc1ccccc1C(=O)C(F)(F)F)c1cc2ccccc2s1 [Example 9, N-[2-(2,2,2-Trifluoro-1-oxoethyl)phenyl]-1-benzothiophene-2-carboxamide] here?
Answer: 26 µM

Question: What about the “Antiviral Activity TD50” value ([3]; 3 days) of the same compound?
Answer: > 100 µM

Question: What about the “Chymotrypsin % @ Conc. (μM)” value ([2]; @ 100 μM) of the same compound?
Answer: 48% @ 100

Question: Which “Antiviral Activity TD50 (μM)” value [4] does the source give for O=C(Nc1ccccc1C(=O)C(F)(F)F)C(F)(F)F [Example 10, α,α,α-Trifluoro-N-[2-(2,2,2-trifluoro-1-oxoethyl)phenyl]acetamide] here?
Answer: >100/>100 μM

Question: With O=C(Nc1ccc(I)cc1C(=O)C(F)(F)F)c1ccco1 [Example 13, N-[4-Iodo-2-(2,2,2-trifluoro-1-oxoethyl)phenyl]furan-2-carboxamide] as the compound, how does the IC50 [1] read?
Answer: 8.3 µM

Question: What about the “Antiviral Activity TD50” value [3] of the same compound?
Answer: > 100 µM

Question: For O=C(COc1ccc(Cl)cc1)Nc1ccccc1C(=O)C(F)(F)F [Example 14, N-[2-(2,2,2-Trifluoro-1-oxoethyl)phenyl]4-chlorophenoxyacetamide], which melting point is on record?
Answer: 134 to 135 °C

Question: Which melting point does the source give for O=C(Nc1ccccc1C(=O)C(F)(F)F)c1cc2ccccc2[nH]1 [Example 15, N-[2-(2,2,2-Trifluoro-1-oxoethyl)phenyl]indolyl-2-carboxamide] here?
Answer: 188 to 193 °C

Question: For O=C(Nc1ccccc1C(=O)C(F)(F)F)c1cc2ccccc2o1 [Example 16, N-[2-(2,2,2-Trifluoro-1-oxoethyl)phenyl]benzofuranyl-2-carboxamide], which IC50 [1] is on record?
Answer: 36 µM

Question: And the melting point?
Answer: 130 to 132 °C

Question: Which IC50 [1] does the source give for COc1ccccc1C(=O)Nc1ccccc1C(=O)C(F)(F)C(=O)NC(C)C [Example 17, N-[2-(3-(2-Propylamino)-3-oxo-2,2-difluoro-1-oxopropyl)phenyl]2-methoxyphenylcarboxamide] here?
Answer: 8.5 µM

Question: What about the melting point of the same compound?
Answer: 131.5 to 132 °C
